According to patent publication EP0247971A2, “Novel pharmaceutical compositions comprising and use of cis-6-(4-acetanilido)-8,9-dimethoxy-2-methyl-1,2,3,4,4a,10b-hexahydrobenzo[c][1,6]naphthyridin” (SANDOZ AG, priority 1986, dated 1987):
Read-outs that look alike come from different tables or passages of the source.

How the values were obtained:
[1] = system: dogs; assay: 30-week oral administration toxicity, dogs; assay type: in vivo
Experimental: (§1) 30-week oral administration of (±)-COMPOUND to rats and dogs indicate no toxicity at dosages up to 272 mg/kg/day in rats and up to 10 mg/kg/day in dogs. (±)-COMPOUND is found to have no embryolethal or teratogenic actions in the rat at dosages up to 300 mg/kg and in the rabbit at dosages up to 30 mg/kg.

[2] = system: guinea-pig peritoneal cavity; assay: Influence on eosinophil accumulation in the peritoneal cavity in vivo
Experimental: Effect of test-substance is conveniently determined by measurement of influence on PAF-induced eosinophil accumulation in the guinea-pig peritoneal cavity in vivo. In the guinea-pig, there is a substantial (up to 40%) resident population of eosinophils in the peritoneal cavity and eosinophil accumulation in the peritoneal cavity relative to control animals ca. 24 - 48 hrs. following injection of PAF i.p. at dosages of ca. 10µg/kg.
To esablish eosinophil accumulation, test animals receive 10µg/kg PAF i.p., 2 days prior to sacrifice. Smears from the peritoneal cavity are prepared employing Leishman's Stain after fixation with 95% methanol. At least 500 white cells are differentiated for each estimation. Test substance is administered s.c. via a minipump for four days prior to sacrifice.

[3] = system: healthy trial volunteers; assay: Tolerability and safety in healthy trial volunteers; assay type: in vivo, humans
[4] = system: rat; assay: Embryolethal or teratogenic actions, rat; assay type: in vivo
Experimental: as §1

[5] = system: rats; assay: 30-week oral administration toxicity, rats; assay type: in vivo
Experimental: as §1

[6] = system: Conscious guinea-pigs; assay: Inhibition of acetylcholine-mist bronchoconstriction following pulmonary administration; assay type: in vivo; details: inhalation of mist 10 mins. prior to 0.3% mist of acetylcholine
Experimental: Conscious guinea-pigs are subjected to inhalation of COMPOUND or placebo (vehicle) 10 mins. prior to explosure to a 0.3% mist of acetylcholine. COMPOUND is administered as a mist generated from COMPOUND in aqueous solution at concentrations of from 1 mg/ml to 0.001 mg/ml, using a jet nebuliser. Prolongation of time prior to collapse in treated groups as compared with placebo groups is taken as a measure of bronchodilator efficacy.

[7] = system: Guinea pigs; assay: Suppression of airways hyperreactivity, sensitised animals (immune complexes); assay type: in vivo
Source text: Guinea pigs are anaesthetised and airways resistance and compliance recorded as described under example lb^l above. […] Platelets are isolated and labelled with ^lllindium prior to intravenous infusion. Platelet accumulation is monitored by external crystal detectors [c.f. Morley et al. […] Allergic reaction is initiated by i.v. injection of preformed immune complexes (bovine y-globulin/ anti-bovine y-globulin), using a dose that is scarcely sufficient to induce bronchospasm at the first injection. By repeating the dose at regular (10 min.) intervals, bronchospasm of progressively increasing amplitude is evidenced. This effect is paralleled by an incremental retention of platelets within the airway vasculature. Following the last dose of immune complexes, the dose-effect relationship to histamine is re-defined. In animals so treated, induction of airways hyperreactivity is consistently observed.

[8] = system: guinea-pig tracheal ring preparations; assay: Bronchospasmolytic activity in vitro, isolated guinea-pig trachea; assay type: cell-based; details: for IC50: guinea-pig tracheal rings, one series of tests
Experimental: The trachea is excised from freshly sacrificed guinea-pigs and transected in the transverse plane to give rings of tissue of ca. 2 mm. Individual rings are mounted vertically on stainless steel supports, one of which is fixed at the base of an organ bath, the other being attached to a tension transducer. The rings are bathed in modified Tyrode solution at 37°C and gassed with O2/CO2 (95:5, v/v). Rings prepared in this manner, preloaded with 1 g, generate spontaneous tone and, after a period of equilibration, relax on addition of spasmolytic drugs. Tension can be enhanced by addition of carbachol (10-^6M) or histamine (10-^4M). To ascertain spasmolytic activity, test substances are dissolved in physiological saline and added in increasing quantities to the organ bath at 5 min. intervals to provide a cumulative concentration-effect curve.

[9] = system: Guinea pigs; assay: Inhibition of bronchospasm in vivo (Konzett-Rossler preparation); details: dosages of the order of 1 mg/kg via jugular vein immediately before PAF, acetylcholine, histamine, serotonin, substance P or leukotriene C4
Experimental: (§2) Guinea pigs are anaesthetised with pentobarbital (30 mg/kg i.p.) and phenobarbital (100 mg/kg i.p.) and ventilated via a tracheal cannula (10 ml/kg, lHz). Ventilation is monitored either by a pressure transducer measuring air-flow (Konzett-Rossler method), or by a Fleisch flow transducer in line with the inspiratory circuit. When making measurements of flow, coincident pressure changes in the thorax are monitored directly via an intrathoracic trochar, permitting display of differential pressure relative to the trachea. From this information resistance and compliance are calculated at each inspiration. Test substance is, administered via an indwelling cannula within a jugular vein. Blood pressure is monitored at the carotid artery. Test substance is administered immediately before injection of a bronchoconstrictor agent - PAF (56 ng/kg), acetylcholine (32 µg/kg), histamine(10 µg/kg), serotonin (10 µg/kg), substance P ([…]) or leukotriene C4 (5 µg/kg).

[10] = system: Guinea-pigs; assay: Reversal of bombesin-induced bronchospasm in vivo; details: i.v. at the height of bronchospasm induced by bombesin (ca. 500 ng/kg); one series of tests; of the order of
Experimental: as §2
Guinea-pigs are prepared for measurement of resistance and compliance as under lb^l above. Intravenous injection of bombes in (ca. 500 ng/kg) as a bolus, induces increased airways resistance which is sustained over a period of several minutes. Capacity of test-substance to reverse response when administered i.v. at the height of bombesin-induced bronchospasm serves as a measure of efficacy in reversing established bronchospasm.

[11] = system: rabbit; assay: Embryolethal or teratogenic actions, rabbit; assay type: in vivo
Experimental: as §1

[12] = system: Guinea-pigs; assay: Suppression of airways hyperreactivity, PAF-treated animals; assay type: in vivo
Experimental: Guinea-pigs are anaesthetised and prepared for recording of lung function as described under example lb^l above. Intravenous injection of low dose bombesin (240 ng/kg) establishes airways sensitivity to spasmogens. Following infusion of PAF over lhr. […] Induction of airways hyperreactivity by PAF is a platelet-dependent phenomenon and development of. airways hyperreactivity in this model in paralleled by observed accumulation of platelets within the thorax.

[13] = system: subjects exhibiting heart insufficiency; assay: Tolerability and safety in subjects exhibiting heart insufficiency; assay type: in vivo, humans
[14] = intravenous dosages of up to 100 mg by perfusion over 10 mins.

COc1cc2c(cc1OC)[C@@H]1CN(C)CC[C@@H]1N=C2c1ccc(NC(C)=O)cc1 (racemic) [(±)-COMPOUND, cis-6-(4-acetanilido)-8,9-dimethoxy-2-methyl-1,2,3,4,4a,10b-hexahydrobenzo[c][1,6]naphthyridin]
dosages with no toxicity [1]: up to 10 mg/kg/day | PAF-induced eosinophil accumulation ([2]; of the order of 2 mg/kg/day s.c. via minipump for four days, animals receiving 10µg/kg PAF i.p.): inhibition of eosinophil accumulation | resident eosinophil population ([2]; of the order of 10 mg/kg/day s.c. via minipump for four days, non-PAF-treated animals, vs untreated controls): decrease | tolerability ([3]; 600 mg once daily for 3 days (6 subjects)): well tolerated | single oral dosages with no occurrence of side effects or relevant changes in laboratory parameters ([3]; healthy trial volunteers (27 subjects)): up to 800 mg | dosages with no embryolethal or teratogenic actions [4]: up to 300 mg/kg | dosages with no toxicity [5]: up to 272 mg/kg/day | amount introduced into the exposure chamber giving detectable protection against bronchospasm [6]: ≥ 2 µg | dosage giving suppression of induced airways resistance ([7]; advance administration i.v., ca., compared with untreated controls): ≥ 1 mg/kg | effective dose, inhibition of airways hyperreactivity ([7]; one test series): 0.35 mg/kg | relaxant action on tracheal rings from animals desensitised to β2-agonist therapy ([8]; animals with prolonged exposure to high-dose isoprenaline in vivo): not influenced | IC50 ([8]; carbachol (10-^6M), read-out: IC50 values for inhibition of contraction due to carbachol): 5.8 µM | IC50 ([8]; histamine (10-^4M), read-out: IC50 values for inhibition of contraction due to histamine): 1.7 µM | IC50 ([8]; spontaneous tone, read-out: IC50 values for inhibition of spontaneous tone): 3.2 µM | relaxant action in the presence of propanolol ([8]; propanolol (1 uM)): undiminished | constrictor response to bronchoconstrictor agents [9]: strongly inhibits | ID50 values, abrogation of bombesin-induced bronchospasm [10]: 0.08 to 0.48 mg/kg | dosages with no embryolethal or teratogenic actions [11]: up to 30 mg/kg | thoracic platelet accumulation in response to PAF ([12]; 1 mg/kg bolus and infusion at 1 mg/kg/hr i.v.): inhibited | dosage giving suppression of airways hyperreactivity induction ([12]; advance administration i.v., ca., PAF infusion 600 ng/kg, bombesin 240 ng/kg): ≥ 0.1 mg/kg | ID50, suppression of airways hyperreactivity induction ([12]; i.v., one series of tests, of the order of): ~1 mg/kg | arterial pressure [13, 14]: light fall | heart frequency [13, 14]: increase | intravenous dosages well tolerated ([13]; perfusion over 10 mins., subjects exhibiting heart insufficiency): up to 100 mg | systolic blood-pressure ([13]; placebo controlled trials, after 60 mins.): light increase | heart frequency ([13]; placebo controlled trials, oral): no relevant change | oral dosages with no significant side effects, well tolerated ([13]; subjects exhibiting heart insufficiency, oral): up to 600 mg
